For three compounds, IC50 results are on record in patent US20130102595A1 (Curis, Inc., priority 2011, published 2013).

One assay has as its target T1, PI3Kγ (p120γ) (Homo sapiens, UniProt P48736).
T1 construct: His (N); made in house; host or cells: Baculovirus-infected Sf9 cells
Kind of assay: PI3Kγ ADP-Glo assay. The following applies: 20 μM PIP2, 10 μM ATP, 90 minutes. In kind it is biochemical. The protocol:
(d) an In Vitro Assay which Determines the Ability of a Test Compound to Inhibit PI3Kγ.
(§1) Activity of PI3Kγ was measured using ADP-Glo assay from Promega. PI3Kγ, N-terminal His-tagged recombinant full-length human p120γ (GenBank, Accession No. AF327656) was expressed in a Baculovirus infected Sf9 cell expression system. The ADP-Glo assay was performed to measure the amount of ADP generated from ATP hydrolysis coupled with PIP2 phosphorylation by the purified recombinant PI3Kγ (p110δ/p85α). PI3Kγ was incubated with 20 μM PIP2 substrate in the reaction buffer (10 mM Tris-HCl, pH 7.5, 50 mM NaCl, 5 mM MgCl2, 10 μM ATP and 0.5% DMSO) for 90 minutes at room temperature. The ADP generated was then detected by ADP-Glo assay from Promega, a luminescent ADP detection assay. The ADP-Glo assay is performed in two steps; first, after the kinase reaction, ADP-Glo Reagent is added to terminate the kinase reaction and deplete the remaining ATP. Second, the Kinase Detection Reagent is added to simultaneously convert ADP to ATP and allow the newly synthesized ATP to be measured using a luciferase/luciferin reaction.
In general terms: ADP-Glo first removes unused ATP, then detects ADP through luciferase.

The next assay concerns H2122. In words: Cell proliferation assay (CellTiter-Glo). The assay is classed as cell-based. The following applies: Homo sapiens, NCI-H2122; NSCLC; 72 hours, 0.5% fetal bovine serum; read-out: antiproliferative activity IC50, H2122. The method in brief: (§2)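 Proliferation is gauged by cellular ATP via firefly luciferase luminescence following 72-hour compound treatment in 0.5% serum.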
(In general: In ATP-based viability assays light output follows the ATP content of the culture.)

The test system of a further assay is H292. Kind of assay: Cell proliferation assay (CellTiter-Glo). The assay is classed as cell-based. Particulars: Homo sapiens, NCI-H292; NSCLC; 72 hours, 0.5% fetal bovine serum; read-out: antiproliferative activity IC50, H292. An outline of the steps: as §2
The next assay relates to T-84. In words: Cell proliferation assay (CellTiter-Glo). The assay is classed as cell-based. The following applies: Homo sapiens, T84; Colon; 72 hours, 0.5% fetal bovine serum; read-out: antiproliferative activity IC50, T-84. An outline of the steps:
as §2

The test system of the next assay is A549. In words: Cell proliferation assay (CellTiter-Glo). The assay is classed as cell-based. Particulars: Homo sapiens, NSCLC, 72 hours, 0.5% fetal bovine serum, read-out: antiproliferative activity IC50, A549. The method in brief: as §2
In another assay the test system is OPM-2. Kind of assay: Cell proliferation assay (CellTiter-Glo). The assay is classed as cell-based. Particulars: Homo sapiens, Multiple Myeloma, 72 hours, 0.5% fetal bovine serum, read-out: antiproliferative activity IC50, OPM-2. An outline of the steps: as §2
The next assay concerns H358. Kind of assay: Cell proliferation assay (CellTiter-Glo). The following applies: Homo sapiens, NCI-H358; NSCLC; 72 hours, 0.5% fetal bovine serum; read-out: antiproliferative activity IC50, H358. The assay is classed as cell-based. An outline of the steps: as §2
A further assay concerns SW403. Kind of assay: Cell proliferation assay (CellTiter-Glo). In kind it is cell-based. The following applies: Homo sapiens, SW-403; Colon; 72 hours, 0.5% fetal bovine serum; read-out: antiproliferative activity IC50, SW403. An outline of the steps: as §2
The test system of the next assay is SWI-116. Kind of assay: Cell proliferation assay (CellTiter-Glo). The assay is classed as cell-based. Particulars: Colon; 72 hours, 0.5% fetal bovine serum; read-out: antiproliferative activity IC50, SWI-116. An outline of the steps:
as §2

The subject of another assay is SW620. Kind of assay: Cell proliferation assay (CellTiter-Glo). The assay is classed as cell-based. Particulars: Homo sapiens, SW-620; Colon; 72 hours, 0.5% fetal bovine serum; read-out: antiproliferative activity IC50, SW620. The method in brief: as §2
A further assay has as its target T2, PI3Kβ (p110β/p85α) (Homo sapiens, UniProt P42338).
T2 construct: His (N); made in house; host or cells: Baculovirus-infected Sf9 cells
In words: PI3Kβ ADP-Glo assay. The assay is classed as biochemical. The following applies: 20 μM PIP2, 10 μM ATP, 90 minutes. The protocol: (B) an In Vitro Assay which Determines the Ability of a Test Compound to Inhibit PI3Kβ.
as §1, with “PI3Kβ” for “PI3Kγ”, “[…], a complex of” for “PI3Kγ,”, “p110β” for “p120γ”, “NM_006219) and untagged recombinant full length human p85α (GenBank Accession No. XM—043865) were co-expressed” for “AF327656) was expressed”, “PI3Kβ (p110β/p85α). PI3Kβ” for “PI3Kγ (p110δ/p85α). PI3Kγ”

The test system of the next assay is CaPan1. In words: Cell proliferation assay (CellTiter-Glo). In kind it is cell-based. The following applies: Homo sapiens, CAPAN-1; Pancreas; 72 hours, 0.5% fetal bovine serum; read-out: antiproliferative activity IC50, CaPan1. An outline of the steps: as §2

For orientation: IC50 means the concentration at which inhibition is half-maximal.

T2 sequence (P42338 whole entry): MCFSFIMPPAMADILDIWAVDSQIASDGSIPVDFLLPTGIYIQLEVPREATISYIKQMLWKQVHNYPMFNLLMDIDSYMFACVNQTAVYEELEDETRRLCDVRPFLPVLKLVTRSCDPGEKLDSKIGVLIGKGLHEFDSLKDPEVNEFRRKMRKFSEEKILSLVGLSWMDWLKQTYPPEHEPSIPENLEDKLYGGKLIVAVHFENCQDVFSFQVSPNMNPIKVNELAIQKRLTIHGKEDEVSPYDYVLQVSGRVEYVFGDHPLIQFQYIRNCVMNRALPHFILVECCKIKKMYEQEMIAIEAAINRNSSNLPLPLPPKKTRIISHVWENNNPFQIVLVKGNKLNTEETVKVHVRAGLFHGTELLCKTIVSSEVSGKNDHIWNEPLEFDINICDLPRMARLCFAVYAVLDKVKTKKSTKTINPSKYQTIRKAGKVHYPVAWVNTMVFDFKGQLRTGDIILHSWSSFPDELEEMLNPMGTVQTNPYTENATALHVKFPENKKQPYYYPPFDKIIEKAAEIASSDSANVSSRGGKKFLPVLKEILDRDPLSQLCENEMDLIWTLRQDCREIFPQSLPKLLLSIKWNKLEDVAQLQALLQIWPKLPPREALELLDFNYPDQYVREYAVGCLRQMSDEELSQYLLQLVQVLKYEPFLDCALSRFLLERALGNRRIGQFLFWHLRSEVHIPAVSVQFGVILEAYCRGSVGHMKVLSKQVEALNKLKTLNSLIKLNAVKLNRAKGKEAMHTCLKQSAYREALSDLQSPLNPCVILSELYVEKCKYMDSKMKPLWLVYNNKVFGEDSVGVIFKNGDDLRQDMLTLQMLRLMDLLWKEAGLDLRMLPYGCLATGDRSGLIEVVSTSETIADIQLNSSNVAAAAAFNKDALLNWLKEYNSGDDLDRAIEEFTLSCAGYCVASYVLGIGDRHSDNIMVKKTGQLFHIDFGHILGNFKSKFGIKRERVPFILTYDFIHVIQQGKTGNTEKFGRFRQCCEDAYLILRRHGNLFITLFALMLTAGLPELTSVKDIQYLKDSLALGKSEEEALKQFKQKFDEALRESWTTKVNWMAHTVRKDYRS
T2 sequence (P27986 whole entry partner): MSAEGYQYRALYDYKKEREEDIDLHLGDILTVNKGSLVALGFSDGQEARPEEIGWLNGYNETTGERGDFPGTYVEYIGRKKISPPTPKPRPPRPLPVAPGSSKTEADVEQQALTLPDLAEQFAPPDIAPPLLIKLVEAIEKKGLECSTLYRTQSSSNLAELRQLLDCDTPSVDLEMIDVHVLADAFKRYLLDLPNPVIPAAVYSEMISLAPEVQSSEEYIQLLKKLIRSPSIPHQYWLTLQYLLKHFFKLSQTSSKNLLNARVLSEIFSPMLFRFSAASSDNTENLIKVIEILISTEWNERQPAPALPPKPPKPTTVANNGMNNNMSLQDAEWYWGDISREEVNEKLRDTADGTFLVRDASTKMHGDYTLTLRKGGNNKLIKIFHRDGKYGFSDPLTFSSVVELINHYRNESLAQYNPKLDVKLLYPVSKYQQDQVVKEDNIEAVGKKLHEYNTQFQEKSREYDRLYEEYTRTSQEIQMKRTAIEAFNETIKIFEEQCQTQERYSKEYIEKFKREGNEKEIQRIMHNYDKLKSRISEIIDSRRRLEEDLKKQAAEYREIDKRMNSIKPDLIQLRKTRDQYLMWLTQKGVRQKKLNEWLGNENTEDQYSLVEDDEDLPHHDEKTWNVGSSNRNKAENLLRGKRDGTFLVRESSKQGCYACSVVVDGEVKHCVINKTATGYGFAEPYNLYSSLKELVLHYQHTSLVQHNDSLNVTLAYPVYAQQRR
T1 sequence (P48736 whole entry): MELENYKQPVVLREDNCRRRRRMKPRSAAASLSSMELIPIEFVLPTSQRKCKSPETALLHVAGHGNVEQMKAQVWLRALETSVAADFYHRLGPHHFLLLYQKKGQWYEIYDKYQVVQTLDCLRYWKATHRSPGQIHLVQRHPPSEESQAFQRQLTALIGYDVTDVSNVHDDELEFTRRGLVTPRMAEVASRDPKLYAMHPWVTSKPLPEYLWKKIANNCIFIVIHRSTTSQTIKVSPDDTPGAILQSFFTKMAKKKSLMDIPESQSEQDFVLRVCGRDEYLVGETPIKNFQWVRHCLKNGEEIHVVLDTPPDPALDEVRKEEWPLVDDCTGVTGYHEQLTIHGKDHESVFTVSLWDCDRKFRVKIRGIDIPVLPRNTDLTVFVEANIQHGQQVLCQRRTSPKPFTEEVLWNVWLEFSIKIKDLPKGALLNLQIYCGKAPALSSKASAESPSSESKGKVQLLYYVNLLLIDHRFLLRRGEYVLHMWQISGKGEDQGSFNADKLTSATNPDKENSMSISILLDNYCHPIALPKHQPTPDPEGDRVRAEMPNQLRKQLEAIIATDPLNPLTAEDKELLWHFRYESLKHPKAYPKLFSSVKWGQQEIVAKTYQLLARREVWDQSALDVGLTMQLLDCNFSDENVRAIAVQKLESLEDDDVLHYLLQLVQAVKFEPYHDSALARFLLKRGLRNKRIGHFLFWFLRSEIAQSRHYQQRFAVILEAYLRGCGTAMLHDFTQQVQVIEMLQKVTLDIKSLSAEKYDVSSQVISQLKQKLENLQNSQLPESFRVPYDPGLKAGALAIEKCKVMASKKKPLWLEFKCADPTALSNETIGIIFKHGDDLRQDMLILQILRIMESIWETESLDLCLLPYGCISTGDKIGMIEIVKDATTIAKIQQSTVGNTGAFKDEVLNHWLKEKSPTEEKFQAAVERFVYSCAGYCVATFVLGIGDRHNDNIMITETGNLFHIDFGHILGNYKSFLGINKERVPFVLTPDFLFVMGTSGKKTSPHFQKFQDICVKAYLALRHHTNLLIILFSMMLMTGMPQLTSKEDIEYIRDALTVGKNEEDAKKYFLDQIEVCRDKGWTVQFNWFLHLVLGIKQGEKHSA

For `CNc1ccc(-c2nc(N3CCOCC3)c3sc(CN(C)c4ncc(C(=O)NO)cn4)cc3n2)cn1` [Compound 111, N-Hydroxy-2-(methyl((2-(6-(methylamino)pyridin-3-yl)-4-morpholinothieno[3,2-d]pyrimidin-6-yl)methyl)amino)pyrimidine-5-carboxamide], the IC50 is 100 to 1000 nM against PI3Kγ (p120γ); less than 10 nM with H2122; less than 10 nM in the assay on H292; 10 to 100 nM in the assay with T-84; 10 to 100 nM in the assay on A549; less than 10 nM in the assay with OPM-2. Besides, the IC50 in the assay with H358 was less than 10 nM; in the assay on SW403, less than 10 nM; with SWI-116, less than 10 nM; with SW620 it was less than 10 nM; on PI3Kβ (p110β/p85α), 100 to 1000 nM.

For the compound `CN(Cc1cc2nc(-c3cccc4[nH]ncc34)nc(N3CCOCC3)c2s1)c1ncc(C(=O)NO)cn1` [Compound 54, 2-(((2-(1H-indazol-4-yl)-4-morpholinothieno[3,2-d]pyrimidin-6-yl)methyl)(methyl)amino)-N-hydroxypyrimidine-5-carboxamide], the IC50 was less than 100 nM on PI3Kγ (p120γ), 10 to 100 nM with CaPan1 and less than 100 nM on PI3Kβ (p110β/p85α).

`CN(Cc1cc2nc(-c3ccc(N)cc3)nc(N3CCOCC3)c2s1)c1ncc(C(=O)NO)cn1` [Compound 150, 2-(((2-(4-aminophenyl)-4-morpholinothieno[3,2-d]pyrimidin-6-yl)methyl)(methyl)amino)-N-hydroxypyrimidine-5-carboxamide]: the IC50 is less than 10 nM with H2122; 100 to 1000 nM with CaPan1; less than 10 nM with H292; 10 to 100 nM with T-84; less than 10 nM in the assay on A549; less than 10 nM in the assay with OPM-2. Further, the IC50 in the assay on H358, with SW403, in the assay with SWI-116 and with SW620 was less than 10 nM throughout.
